From PubChem BioAssay AID2060899 (Molecular Pharmacology Branch, DTP, NCI, 2025)

Test system: 565726-208-R1-J5-PDC complex spheroids, growth inhibition
Test: Anticancer human tumor 565726-208-R1-J5-PDC patient-derived pancreatic adenocarcinoma cell line growth inhibition [RAS]
Details: for IC50: curve of first compound; for viability, T/C: stronger effect = lower value
Outline: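 Tumour cells grown as complex spheroids with HUVEC endothelial cells and mesenchymal stem cells, treated with RAS pathway inhibitor combinations. Each agent spans half-log steps from near clinical Cmax, or 10 microM where Cmax is unknown.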

[1] = second compound 0.0316 µM, first compound 0.0316 µM
[2] = second compound 0.0316 µM, first compound 0.1 µM
[3] = second compound 0.0316 µM, first compound 0.316 µM
[4] = second compound 0.0316 µM, first compound 1 µM
[5] = second compound 0.0316 µM, first compound 3.16 µM
[6] = second compound 0.0316 µM, first compound 10 µM
[7] = second compound 0.1 µM, first compound 0.0316 µM
[8] = second compound 0.1 µM, first compound 0.1 µM
[9] = second compound 0.1 µM, first compound 0.316 µM
[10] = second compound 0.1 µM, first compound 1 µM
[11] = second compound 0.1 µM, first compound 3.16 µM
[12] = second compound 0.1 µM, first compound 10 µM
[13] = second compound 0.316 µM, first compound 0.0316 µM
[14] = second compound 0.316 µM, first compound 0.1 µM
[15] = second compound 0.316 µM, first compound 0.316 µM
[16] = second compound 0.316 µM, first compound 1 µM
[17] = second compound 0.316 µM, first compound 3.16 µM
[18] = second compound 0.316 µM, first compound 10 µM
[19] = second compound 1 µM, first compound 0.0316 µM
[20] = second compound 1 µM, first compound 0.1 µM
[21] = second compound 1 µM, first compound 0.316 µM
[22] = second compound 1 µM, first compound 1 µM
[23] = second compound 1 µM, first compound 3.16 µM
[24] = second compound 1 µM, first compound 10 µM
[25] = second compound 3.16 µM, first compound 0.0316 µM
[26] = second compound 3.16 µM, first compound 0.1 µM
[27] = second compound 3.16 µM, first compound 0.316 µM
[28] = second compound 3.16 µM, first compound 1 µM
[29] = second compound 3.16 µM, first compound 3.16 µM
[30] = second compound 3.16 µM, first compound 10 µM
[31] = second compound 10 µM, first compound 0.0316 µM
[32] = second compound 10 µM, first compound 0.1 µM
[33] = second compound 10 µM, first compound 0.316 µM
[34] = second compound 10 µM, first compound 1 µM
[35] = second compound 10 µM, first compound 3.16 µM
[36] = second compound 10 µM, first compound 10 µM
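Note: spheroids exposed to compounds for seven days before readout.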
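Throughout, for viability, T/C: 100% = DMSO vehicle control viability.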

`Nc1ccn(C2OC(CO)C(O)C2(F)F)c(=O)n1` (stereo unspecified) + CCn1c(-c2cc(N3CCN(C)CC3)cnc2C(C)OC)c2c3cc(ccc31)-c1csc(n1)CC(NC(=O)C1CC1C)C(=O)N1CCCC(N1)C(=O)OCC(C)(C)C2 showed an IC50 (second compound 0.000949 µM) of 21.9 nM, an IC50 (second compound 0.003 µM) of 7.2 nM and an IC50 (second compound 0.00949 µM) of less than 3.16 nM. It also gave an IC50 (second compound 0.03 µM) of less than 3.16 nM, an IC50 (second compound 0.0949 µM) of less than 3.16 nM and an IC50 (second compound 0.3 µM) of less than 3.16 nM. For the same molecule, the viability, T/C (second compound 0.000949 µM, first compound 0.00316 µM) was 63.3%, the viability, T/C (second compound 0.000949 µM, first compound 0.01 µM) was 54.7% and the viability, T/C (second compound 0.000949 µM, first compound 0.0316 µM) was 49.9%. It also gave a viability, T/C (second compound 0.000949 µM, first compound 0.1 µM) of 34.4%, a viability, T/C (second compound 0.000949 µM, first compound 0.316 µM) of 35% and a viability, T/C (second compound 0.000949 µM, first compound 1 µM) of 27.8%. For the same molecule, the viability, T/C (second compound 0.003 µM, first compound 0.00316 µM) was 56.7%, the viability, T/C (second compound 0.003 µM, first compound 0.01 µM) was 46.3% and the viability, T/C (second compound 0.003 µM, first compound 0.0316 µM) was 40.4%. It also gave a viability, T/C (second compound 0.003 µM, first compound 0.1 µM) of 33.6%, a viability, T/C (second compound 0.003 µM, first compound 0.316 µM) of 33.1% and a viability, T/C (second compound 0.003 µM, first compound 1 µM) of 24.3%. For the same molecule, the viability, T/C (second compound 0.00949 µM, first compound 0.00316 µM) was 38.8%, the viability, T/C (second compound 0.00949 µM, first compound 0.01 µM) was 42.1% and the viability, T/C (second compound 0.00949 µM, first compound 0.0316 µM) was 34.2%. It also gave a viability, T/C (second compound 0.00949 µM, first compound 0.1 µM) of 29.1%, a viability, T/C (second compound 0.00949 µM, first compound 0.316 µM) of 28.3% and a viability, T/C (second compound 0.00949 µM, first compound 1 µM) of 23.7%. The viability, T/C (second compound 0.03 µM, first compound 0.00316 µM) was 28.9%, the viability, T/C (second compound 0.03 µM, first compound 0.01 µM) was 31.7% and the viability, T/C (second compound 0.03 µM, first compound 0.0316 µM) was 24.4%. It also gave a viability, T/C (second compound 0.03 µM, first compound 0.1 µM) of 22.1%, a viability, T/C (second compound 0.03 µM, first compound 0.316 µM) of 24.1% and a viability, T/C (second compound 0.03 µM, first compound 1 µM) of 21.7%. For the same molecule, the viability, T/C (second compound 0.0949 µM, first compound 0.00316 µM) was 25.4%, the viability, T/C (second compound 0.0949 µM, first compound 0.01 µM) was 26.9% and the viability, T/C (second compound 0.0949 µM, first compound 0.0316 µM) was 23.1%. The viability, T/C (second compound 0.0949 µM, first compound 0.1 µM) was 21.1%, the viability, T/C (second compound 0.0949 µM, first compound 0.316 µM) was 19.1% and the viability, T/C (second compound 0.0949 µM, first compound 1 µM) was 18.9%. For the same molecule, the viability, T/C (second compound 0.3 µM, first compound 0.00316 µM) was 22.3%, the viability, T/C (second compound 0.3 µM, first compound 0.01 µM) was 25.2% and the viability, T/C (second compound 0.3 µM, first compound 0.0316 µM) was 23.3%. For the same molecule, the viability, T/C (second compound 0.3 µM, first compound 0.1 µM) was 20.9%, the viability, T/C (second compound 0.3 µM, first compound 0.316 µM) was 22.2% and the viability, T/C (second compound 0.3 µM, first compound 1 µM) was 19%.

In the case of `Cc1nc(N2CCC3(CC2)COC(C)C3N)c(CO)nc1Sc1ccnc(N)c1Cl` (stereo unspecified) + C#Cc1c(F)ccc2cc(O)cc(-c3ncc4c(N5CC6CCC(C5)N6)nc(OCC56CCCN5CC(F)C6)nc4c3F)c12, the IC50 (second compound 0.0316 µM) is reported as greater than 10000 nM, the IC50 (second compound 0.1 µM) is reported as greater than 10000 nM and the IC50 (second compound 0.316 µM) is reported as greater than 10000 nM. For the same molecule, the IC50 (second compound 1 µM) was greater than 10000 nM, the IC50 (second compound 3.16 µM) was 313 nM and the IC50 (second compound 10 µM) was 229 nM. For the same molecule, the viability, T/C [1] was 116%, the viability, T/C [2] was 125% and the viability, T/C [3] was 79.6%. The viability, T/C [4] was 77.1%, the viability, T/C [5] was 90.7% and the viability, T/C [6] was 104%. The viability, T/C [7] was 103%, the viability, T/C [8] was 112% and the viability, T/C [9] was 71.6%. The viability, T/C [10] was 72.8%, the viability, T/C [11] was 92.4% and the viability, T/C [12] was 101%. The viability, T/C [13] was 130%, the viability, T/C [14] was 108% and the viability, T/C [15] was 74.5%. It also gave a viability, T/C [16] of 67.8%, a viability, T/C [17] of 90.2% and a viability, T/C [18] of 80.3%. It also gave a viability, T/C [19] of 119%, a viability, T/C [20] of 106% and a viability, T/C [21] of 55.8%. For the same molecule, the viability, T/C [22] was 53.4%, the viability, T/C [23] was 57.8% and the viability, T/C [24] was 71.1%. The viability, T/C [25] was 108%, the viability, T/C [26] was 94.5% and the viability, T/C [27] was 49.6%. For the same molecule, the viability, T/C [28] was 42.8%, the viability, T/C [29] was 46% and the viability, T/C [30] was 57.3%. The viability, T/C [31] was 80.9%, the viability, T/C [32] was 66.1% and the viability, T/C [33] was 43.5%. It also gave a viability, T/C [34] of 35.9%, a viability, T/C [35] of 34.6% and a viability, T/C [36] of 33%.

Molecule `CC(Nc1ccc2c(c1)OCCn1cc(N3C(=O)OCC3C(F)F)nc1-2)C(N)=O` (stereo unspecified) + C#Cc1c(F)ccc2cc(O)cc(-c3ncc4c(N5CC6CCC(C5)N6)nc(OCC56CCCN5CC(F)C6)nc4c3F)c12 has an IC50 (second compound 0.0316 µM) greater than 10000 nM, an IC50 (second compound 0.1 µM) greater than 10000 nM and an IC50 (second compound 0.316 µM) greater than 10000 nM. The IC50 (second compound 1 µM) was greater than 10000 nM, the IC50 (second compound 3.16 µM) was 487 nM and the IC50 (second compound 10 µM) was 527 nM. It also gave a viability, T/C [1] of 73.2%, a viability, T/C [2] of 101% and a viability, T/C [3] of 86.5%. It also gave a viability, T/C [4] of 60.4%, a viability, T/C [5] of 92.9% and a viability, T/C [6] of 70.2%. For the same molecule, the viability, T/C [7] was 87.5%, the viability, T/C [8] was 102% and the viability, T/C [9] was 73.9%. The viability, T/C [10] was 53.5%, the viability, T/C [11] was 81.2% and the viability, T/C [12] was 65.5%. For the same molecule, the viability, T/C [13] was 105%, the viability, T/C [14] was 109% and the viability, T/C [15] was 72.9%. It also gave a viability, T/C [16] of 55.1%, a viability, T/C [17] of 69.2% and a viability, T/C [18] of 62.5%. For the same molecule, the viability, T/C [19] was 114%, the viability, T/C [20] was 102% and the viability, T/C [21] was 57.2%. For the same molecule, the viability, T/C [22] was 60.2%, the viability, T/C [23] was 47.4% and the viability, T/C [24] was 54.6%. It also gave a viability, T/C [25] of 90.5%, a viability, T/C [26] of 80% and a viability, T/C [27] of 56.4%. For the same molecule, the viability, T/C [28] was 38.7%, the viability, T/C [29] was 35.6% and the viability, T/C [30] was 45.3%. For the same molecule, the viability, T/C [31] was 60.8%, the viability, T/C [32] was 68.9% and the viability, T/C [33] was 51.1%. It also gave a viability, T/C [34] of 46.7%, a viability, T/C [35] of 30.7% and a viability, T/C [36] of 34.7%.
